Experimental data from article PMC6934184, “Selective DNA-PKcs inhibition extends the therapeutic index of localized radiotherapy and chemotherapy” (The Journal of Clinical Investigation, 2019).

Molecular target: T1, DYRK1A (Homo sapiens, UniProt Q13627)
T1 construct: purchased Thermo Fisher Scientific (Life Technologies) SelectScreen
Assay: SelectScreen Z'LYTE
Assay type: biochemical
Summary of the method: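 NU5455 was profiled across the SelectScreen Broad panel of kinase activity and binding assays. Z'LYTE reactions such as CSF1R ran at apparent Km ATP, while the Adapta CAMK1 assay used ATP listed as 10. Values are given as percent.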

CN(C(=O)CN1CCOCC1)c1ccc2sc3c(-c4cccc5c(=O)cc(N6CC7CCC(C6)O7)oc45)cccc3c2c1 [NU5455]
inhibition at 1 µM: 6.4%
